Key:
[1] = target: Tyrosine-protein kinase JAK1 (Homo sapiens, UniProt P23458); assay: Selectivity interaction (KinomeScan (DiscoverX)) EUB0000092b JAK1; conditions: at 10 µM
[2] = target: T1, Tyrosine-protein kinase ZAP-70 (Homo sapiens) (UniProt P43403); assay: Selectivity interaction (KinomeScan (DiscoverX)) EUB0001079a ZAP70; conditions: at 1 µM
T1 sequence (whole entry): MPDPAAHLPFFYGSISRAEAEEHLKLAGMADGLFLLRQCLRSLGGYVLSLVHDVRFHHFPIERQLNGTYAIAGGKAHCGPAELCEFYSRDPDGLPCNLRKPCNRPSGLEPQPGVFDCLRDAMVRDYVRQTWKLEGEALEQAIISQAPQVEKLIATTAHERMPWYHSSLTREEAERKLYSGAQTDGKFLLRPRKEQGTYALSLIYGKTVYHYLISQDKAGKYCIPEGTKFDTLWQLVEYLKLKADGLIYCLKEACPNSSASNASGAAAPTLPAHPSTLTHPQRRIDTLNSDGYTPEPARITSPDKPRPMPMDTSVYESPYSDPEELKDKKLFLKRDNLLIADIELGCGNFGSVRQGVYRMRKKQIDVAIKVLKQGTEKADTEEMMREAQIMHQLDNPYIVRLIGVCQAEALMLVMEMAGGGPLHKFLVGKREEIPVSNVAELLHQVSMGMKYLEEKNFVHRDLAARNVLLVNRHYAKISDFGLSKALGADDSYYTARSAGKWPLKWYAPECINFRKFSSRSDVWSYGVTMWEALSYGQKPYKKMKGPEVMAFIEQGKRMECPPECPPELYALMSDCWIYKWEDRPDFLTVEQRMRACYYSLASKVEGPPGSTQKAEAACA

[3] = target: T2, Serine/threonine-protein kinase Nek3 (Homo sapiens) (UniProt P51956); assay: Selectivity interaction (KinomeScan (DiscoverX)) EUB0001079a NEK3; conditions: at 1 µM
T2 sequence (whole entry): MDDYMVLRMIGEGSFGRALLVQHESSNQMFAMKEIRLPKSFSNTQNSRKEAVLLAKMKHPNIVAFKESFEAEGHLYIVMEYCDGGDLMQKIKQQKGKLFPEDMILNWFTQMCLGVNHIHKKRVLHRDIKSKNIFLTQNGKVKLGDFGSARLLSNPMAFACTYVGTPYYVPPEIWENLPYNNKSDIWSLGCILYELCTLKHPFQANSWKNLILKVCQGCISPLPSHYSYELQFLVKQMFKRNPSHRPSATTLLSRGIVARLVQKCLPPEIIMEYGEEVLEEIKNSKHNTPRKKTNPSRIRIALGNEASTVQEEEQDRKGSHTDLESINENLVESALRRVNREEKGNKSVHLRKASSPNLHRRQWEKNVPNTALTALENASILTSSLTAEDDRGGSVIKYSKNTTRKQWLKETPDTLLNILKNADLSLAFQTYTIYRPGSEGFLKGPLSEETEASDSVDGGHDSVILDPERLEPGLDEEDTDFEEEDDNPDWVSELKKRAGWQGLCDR

[4] = target: Microtubule-associated serine/threonine-protein kinase 3 (Homo sapiens) (UniProt O60307); assay: Selectivity interaction (Kinase panel (KiNativ target engagement assay in Jurkat cells)) EUB0001635a MAST3; assay type: cell-based; conditions: Selectivity number of off-targets 0.0, Selectivity number of targets 233.0, Source Knowledge https://www.sciencedirect.com/science/article/pii/S2451945619300674?via%3Dihub, at 1 µM
[5] = target: Histone-lysine N-methyltransferase SETD2 (Homo sapiens) (UniProt Q9BYW2); assay: Selectivity interaction (Transferase panel (protein, RNA, and DNA methyltransferases. and EP300 (acetyltransferase))) EUB0000270b SETD2
[6] = target: Serine/threonine-protein kinase SMG1 (Homo sapiens) (UniProt Q96Q15); assay: Selectivity interaction (ActivX KiNativ screen (kinase selectivity in THP-1 cell lysates)) EUB0000639a SMG1; assay type: subcellular; conditions: lysate
Sequence of Serine/threonine-protein kinase SMG1 (Homo sapiens) (Q96Q15 whole entry): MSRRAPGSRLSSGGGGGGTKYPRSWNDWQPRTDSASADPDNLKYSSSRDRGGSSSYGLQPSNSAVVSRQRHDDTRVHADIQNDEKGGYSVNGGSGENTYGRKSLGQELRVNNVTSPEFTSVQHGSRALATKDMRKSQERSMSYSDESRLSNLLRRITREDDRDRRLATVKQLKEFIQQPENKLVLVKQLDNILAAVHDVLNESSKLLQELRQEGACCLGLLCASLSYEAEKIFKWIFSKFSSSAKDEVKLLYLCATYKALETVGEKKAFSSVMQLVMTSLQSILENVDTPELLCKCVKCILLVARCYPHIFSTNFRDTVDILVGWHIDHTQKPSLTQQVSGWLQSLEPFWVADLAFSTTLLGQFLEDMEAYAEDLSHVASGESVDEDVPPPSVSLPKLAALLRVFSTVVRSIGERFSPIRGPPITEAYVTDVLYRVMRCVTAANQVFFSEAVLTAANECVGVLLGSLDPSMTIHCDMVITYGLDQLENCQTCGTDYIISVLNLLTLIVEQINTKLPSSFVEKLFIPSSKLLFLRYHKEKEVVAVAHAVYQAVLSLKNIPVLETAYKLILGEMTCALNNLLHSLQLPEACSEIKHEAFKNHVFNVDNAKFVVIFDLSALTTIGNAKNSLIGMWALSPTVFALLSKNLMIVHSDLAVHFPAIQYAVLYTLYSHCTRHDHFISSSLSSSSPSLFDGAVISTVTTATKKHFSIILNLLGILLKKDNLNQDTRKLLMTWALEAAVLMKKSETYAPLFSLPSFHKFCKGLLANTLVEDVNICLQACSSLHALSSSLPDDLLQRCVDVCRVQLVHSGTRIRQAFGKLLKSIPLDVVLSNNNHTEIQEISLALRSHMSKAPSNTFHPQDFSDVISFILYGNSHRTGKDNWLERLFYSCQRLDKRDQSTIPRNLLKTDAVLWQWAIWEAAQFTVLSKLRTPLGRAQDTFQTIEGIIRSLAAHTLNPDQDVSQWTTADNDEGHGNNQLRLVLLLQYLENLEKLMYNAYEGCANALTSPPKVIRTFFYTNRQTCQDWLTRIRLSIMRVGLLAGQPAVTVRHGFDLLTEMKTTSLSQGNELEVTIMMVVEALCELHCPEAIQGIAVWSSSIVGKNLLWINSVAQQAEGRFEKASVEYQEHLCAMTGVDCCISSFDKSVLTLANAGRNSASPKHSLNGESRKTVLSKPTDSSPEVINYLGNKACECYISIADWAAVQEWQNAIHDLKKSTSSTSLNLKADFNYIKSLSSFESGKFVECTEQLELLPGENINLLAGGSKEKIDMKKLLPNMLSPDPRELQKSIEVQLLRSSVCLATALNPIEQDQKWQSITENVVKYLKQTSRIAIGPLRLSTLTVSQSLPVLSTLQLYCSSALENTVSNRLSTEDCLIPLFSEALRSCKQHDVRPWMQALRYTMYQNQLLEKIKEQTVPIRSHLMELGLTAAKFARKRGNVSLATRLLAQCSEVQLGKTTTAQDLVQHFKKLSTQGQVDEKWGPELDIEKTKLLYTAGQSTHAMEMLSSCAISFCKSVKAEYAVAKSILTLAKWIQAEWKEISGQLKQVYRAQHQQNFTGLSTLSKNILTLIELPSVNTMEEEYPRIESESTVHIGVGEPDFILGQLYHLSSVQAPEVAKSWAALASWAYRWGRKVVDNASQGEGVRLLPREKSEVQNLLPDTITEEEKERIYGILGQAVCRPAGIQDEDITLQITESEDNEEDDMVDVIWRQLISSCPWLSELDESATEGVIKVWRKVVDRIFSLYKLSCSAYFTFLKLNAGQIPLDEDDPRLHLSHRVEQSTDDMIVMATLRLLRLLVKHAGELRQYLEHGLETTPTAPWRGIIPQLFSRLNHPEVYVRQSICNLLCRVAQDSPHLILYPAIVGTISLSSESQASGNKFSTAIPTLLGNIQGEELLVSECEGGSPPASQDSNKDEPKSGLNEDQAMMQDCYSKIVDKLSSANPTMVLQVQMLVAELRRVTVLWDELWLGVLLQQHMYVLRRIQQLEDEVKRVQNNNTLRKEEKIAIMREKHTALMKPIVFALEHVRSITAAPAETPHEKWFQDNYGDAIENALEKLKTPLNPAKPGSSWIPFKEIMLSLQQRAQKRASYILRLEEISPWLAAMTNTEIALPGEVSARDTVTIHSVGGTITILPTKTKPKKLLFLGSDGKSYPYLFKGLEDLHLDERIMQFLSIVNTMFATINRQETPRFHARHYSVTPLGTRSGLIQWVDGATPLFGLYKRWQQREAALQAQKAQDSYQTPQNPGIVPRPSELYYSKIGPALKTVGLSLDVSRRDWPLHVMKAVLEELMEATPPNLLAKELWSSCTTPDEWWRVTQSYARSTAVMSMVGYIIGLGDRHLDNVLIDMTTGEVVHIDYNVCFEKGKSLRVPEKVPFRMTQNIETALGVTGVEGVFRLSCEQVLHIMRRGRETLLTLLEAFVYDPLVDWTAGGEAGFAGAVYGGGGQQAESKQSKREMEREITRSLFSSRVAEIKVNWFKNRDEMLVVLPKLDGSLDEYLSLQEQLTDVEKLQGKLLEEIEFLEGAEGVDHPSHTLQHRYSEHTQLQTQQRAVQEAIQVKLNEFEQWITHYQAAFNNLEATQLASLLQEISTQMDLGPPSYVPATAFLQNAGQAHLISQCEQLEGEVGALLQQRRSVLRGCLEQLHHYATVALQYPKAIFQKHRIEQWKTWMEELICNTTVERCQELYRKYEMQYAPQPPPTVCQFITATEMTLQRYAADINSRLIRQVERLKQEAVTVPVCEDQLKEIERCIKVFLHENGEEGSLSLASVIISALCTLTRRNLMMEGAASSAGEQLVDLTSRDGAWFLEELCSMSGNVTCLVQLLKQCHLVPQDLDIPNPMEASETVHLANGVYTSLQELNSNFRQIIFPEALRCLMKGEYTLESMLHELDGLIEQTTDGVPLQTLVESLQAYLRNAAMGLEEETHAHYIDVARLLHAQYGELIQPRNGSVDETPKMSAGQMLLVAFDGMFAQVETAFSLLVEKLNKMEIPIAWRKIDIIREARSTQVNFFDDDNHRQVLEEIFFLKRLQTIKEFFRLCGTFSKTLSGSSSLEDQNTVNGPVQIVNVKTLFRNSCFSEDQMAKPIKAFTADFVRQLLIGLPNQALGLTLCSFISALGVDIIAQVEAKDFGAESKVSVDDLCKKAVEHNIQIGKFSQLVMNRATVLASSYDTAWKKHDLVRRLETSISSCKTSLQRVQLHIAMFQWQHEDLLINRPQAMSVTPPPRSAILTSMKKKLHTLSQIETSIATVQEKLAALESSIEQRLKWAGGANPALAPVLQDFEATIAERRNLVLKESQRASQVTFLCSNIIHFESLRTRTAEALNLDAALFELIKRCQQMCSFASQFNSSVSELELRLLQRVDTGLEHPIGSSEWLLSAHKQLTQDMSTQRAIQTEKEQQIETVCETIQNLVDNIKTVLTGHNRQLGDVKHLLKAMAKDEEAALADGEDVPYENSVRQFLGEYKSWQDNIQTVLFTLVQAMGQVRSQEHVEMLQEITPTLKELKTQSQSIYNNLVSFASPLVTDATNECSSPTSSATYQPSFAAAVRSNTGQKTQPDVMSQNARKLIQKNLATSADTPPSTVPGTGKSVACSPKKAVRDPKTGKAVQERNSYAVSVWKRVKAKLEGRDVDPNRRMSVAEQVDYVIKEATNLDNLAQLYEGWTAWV

[7] = target: MAP/microtubule affinity-regulating kinase 3 (Homo sapiens) (UniProt P27448); assay: Selectivity interaction (ActivX KiNativ screen (kinase selectivity in THP-1 cell lysates)) EUB0000639a MARK3; assay type: subcellular; conditions: lysate
Sequence of MAP/microtubule affinity-regulating kinase 3 (Homo sapiens) (P27448 whole entry, looked up): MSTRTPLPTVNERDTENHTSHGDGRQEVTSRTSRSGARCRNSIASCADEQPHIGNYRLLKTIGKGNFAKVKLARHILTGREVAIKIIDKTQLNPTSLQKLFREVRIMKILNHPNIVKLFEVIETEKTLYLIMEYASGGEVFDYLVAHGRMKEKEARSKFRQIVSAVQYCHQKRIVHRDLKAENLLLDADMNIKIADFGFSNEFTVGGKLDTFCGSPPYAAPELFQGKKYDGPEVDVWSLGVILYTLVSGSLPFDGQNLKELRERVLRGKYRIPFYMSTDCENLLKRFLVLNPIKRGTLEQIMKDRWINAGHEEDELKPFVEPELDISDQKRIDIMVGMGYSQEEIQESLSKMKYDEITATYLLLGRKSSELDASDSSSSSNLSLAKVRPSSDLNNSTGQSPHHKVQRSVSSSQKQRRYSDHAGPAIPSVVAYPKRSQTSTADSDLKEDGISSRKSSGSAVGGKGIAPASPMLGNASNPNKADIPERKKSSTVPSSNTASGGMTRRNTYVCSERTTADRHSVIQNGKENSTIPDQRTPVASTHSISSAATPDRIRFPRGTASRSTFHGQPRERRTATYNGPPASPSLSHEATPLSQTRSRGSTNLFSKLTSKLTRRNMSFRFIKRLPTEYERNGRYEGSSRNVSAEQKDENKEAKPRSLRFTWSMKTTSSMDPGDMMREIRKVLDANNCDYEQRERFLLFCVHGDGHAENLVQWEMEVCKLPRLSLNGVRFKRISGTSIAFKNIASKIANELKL

[8] = target: Mitogen-activated protein kinase kinase kinase 8 (Homo sapiens, UniProt P41279); assay: Selectivity interaction (SelectScreen profiling (Invitrogen)) EUB0000607a MAP3K8; conditions: at 2 µM
[9] = target: Serine/threonine-protein kinase pim-1 (Homo sapiens, UniProt P11309); assay: Selectivity interaction (KinomeScan (DiscoverX)) EUB0000607a PIM1; conditions: at 10 µM
Sequence of Serine/threonine-protein kinase pim-1 (P11309 whole entry, looked up): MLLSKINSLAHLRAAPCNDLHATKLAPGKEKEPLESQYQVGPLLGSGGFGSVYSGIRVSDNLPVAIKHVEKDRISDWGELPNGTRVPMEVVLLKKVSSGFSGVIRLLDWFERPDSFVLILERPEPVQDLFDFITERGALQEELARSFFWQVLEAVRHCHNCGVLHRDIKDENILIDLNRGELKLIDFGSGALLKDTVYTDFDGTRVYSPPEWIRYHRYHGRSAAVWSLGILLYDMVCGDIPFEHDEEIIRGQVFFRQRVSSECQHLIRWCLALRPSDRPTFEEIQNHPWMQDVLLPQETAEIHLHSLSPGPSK

[10] = target: T3, Myosin light chain kinase family member 4 (Homo sapiens) (UniProt Q86YV6); assay: Selectivity interaction (KinomeScan (DiscoverX)) EUB0001049a MYLK4; conditions: at 1 µM
T3 sequence (whole entry): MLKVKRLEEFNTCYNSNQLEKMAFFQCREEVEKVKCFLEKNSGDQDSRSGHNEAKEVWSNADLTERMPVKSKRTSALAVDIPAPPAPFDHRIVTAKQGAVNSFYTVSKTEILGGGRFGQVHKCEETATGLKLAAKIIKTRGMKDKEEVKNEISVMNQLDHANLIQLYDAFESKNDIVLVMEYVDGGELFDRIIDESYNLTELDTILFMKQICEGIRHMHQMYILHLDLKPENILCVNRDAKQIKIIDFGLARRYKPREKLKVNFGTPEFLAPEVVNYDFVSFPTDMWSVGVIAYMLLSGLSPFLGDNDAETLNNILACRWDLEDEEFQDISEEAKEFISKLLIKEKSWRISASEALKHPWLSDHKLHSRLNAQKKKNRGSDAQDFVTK

[11] = target: Phosphatidylinositol 4-phosphate 5-kinase type-1 alpha (Homo sapiens) (UniProt Q99755); conditions: at 10 µM
[12] = target: Epidermal growth factor receptor (Homo sapiens, UniProt P00533); assay: Selectivity interaction (Kinase panel (literature)) EUB0001199aCl EGFR; conditions: at 1 µM
[13] = target: Mitogen-activated protein kinase 8 (Homo sapiens, UniProt P45983); assay: Selectivity interaction (Ambit KINOMEscan and KiNATiv profiling in Jurkat cells) EUB0000090b MAPK8; assay type: cell-based; conditions: at 1 µM
Sequence of Mitogen-activated protein kinase 8 (P45983 whole entry): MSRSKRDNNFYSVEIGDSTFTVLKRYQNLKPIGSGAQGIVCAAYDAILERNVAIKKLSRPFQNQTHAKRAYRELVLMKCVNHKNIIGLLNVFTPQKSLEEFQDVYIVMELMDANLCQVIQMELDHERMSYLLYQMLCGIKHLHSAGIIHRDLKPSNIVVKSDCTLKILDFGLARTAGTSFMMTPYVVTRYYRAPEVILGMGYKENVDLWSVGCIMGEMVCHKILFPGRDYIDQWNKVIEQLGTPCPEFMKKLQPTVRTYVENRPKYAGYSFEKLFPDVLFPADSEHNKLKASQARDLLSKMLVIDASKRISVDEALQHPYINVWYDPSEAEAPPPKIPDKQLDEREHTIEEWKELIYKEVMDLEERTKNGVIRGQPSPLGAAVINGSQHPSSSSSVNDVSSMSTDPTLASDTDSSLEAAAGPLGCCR

[14] = target: Calcium/calmodulin-dependent protein kinase type II subunit gamma (Homo sapiens) (UniProt Q13555); assay: Selectivity interaction (ActivX KiNativ screen (ex vivo kinase selectivity in human PBMCs)) EUB0001619a CAMK2G; assay type: cell-based; conditions: PBMC, at 1 µM
[15] = target: Casein kinase I isoform gamma-2 (Homo sapiens) (UniProt P78368); assay: Selectivity interaction (KinomeScan (DiscoverX)) EUB0001619a CSNK1G2; conditions: at 1 µM

CCC(=O)N1CCN(c2ccc(-n3c(=O)ccc4cnc5ccc(-c6cnc7ccccc7c6)cc5c43)cc2C(F)(F)F)CC1
% of control [1]: 76%

Nc1cnc(N2CCc3cc(S(=O)(=O)Nc4c(F)cc(Cl)cc4F)cc(N4CCCC4=O)c32)nc1 [TP-020n]
% of control [2]: 85% | % of control [3]: 100%

C=CC(=O)Nc1ccc(C(=O)Nc2[nH]nc3c2CN(C(=O)N[C@H](CN(C)C)c2ccccc2)C3(C)C)cc1
% of engagement [4]: -0.8%

Cc1cc(CN)cc(C)c1-c1ncn(C)c1-c1cncn1C
% activity ([5]; at 1 µM): > 90% | % activity ([5]; at 10 µM): > 80%

CC[C@@H]1[C@H](F)C(=O)N[C@@H]1COc1nccc2cc(C(N)=O)c(OC)cc12 [ZIMLOVISERTIB]
% of inhibition ([6]; at 0.01 µM): 7.7% | % of inhibition ([6]; at 0.04 µM): 1.9% | % of inhibition ([6]; at 0.2 µM): 6.9% | % of inhibition ([6]; at 1 µM): 6.1% | % of inhibition ([6]; at 5 µM): -13.6% | % of inhibition ([7]; at 0.01 µM): 10% | % of inhibition ([7]; at 0.04 µM): 17.3% | % of inhibition ([7]; at 0.2 µM): 11.9% | % of inhibition ([7]; at 1 µM): 26.3% | % of inhibition ([7]; at 5 µM): 51.4%

CNC(=O)Nc1ccc(-c2nc(N3CC4CCC(C3)O4)c3cnn(C4CCC5(CC4)OCCO5)c3n2)cc1
% of inhibition [8]: 1% | % of control [9]: 100%

COc1cc(Nc2nc(C)cc(-c3cnn4nc(OC)ccc34)n2)cc(C(F)(F)F)c1
% of control [10]: 100%

COCC(=O)NC/C=C/c1ccc2ncnc(Nc3ccc(Oc4ccc(C)nc4)c(C)c3)c2c1 [CP-724714]
% of control [11]: 88%

CN1Cc2nccc(-c3cn(C)nc3-c3ccc(F)cc3)c2C1=O
% of inhibition [12]: 8%

CN(C)C/C=C/C(=O)Nc1ccc(C(=O)N2CCCC(Nc3ncc(Cl)c(-c4c[nH]c5ccccc45)n3)C2)cc1 (centres undefined)
% of control [13]: 0.95%

N#Cc1cccc(-c2c[nH]c3ncnc(N4CCOCC4)c23)c1
% of inhibition [14]: -12% | % of control [15]: 89%
